Experimental data reported in ChEMBL document CHEMBL1157199, “Effects of modifications of the linker in a series of phenylpropanoic acid derivatives: Synthesis, evaluation as PPARalpha/gamma dual agonists, and X-ray crystallographic studies” (Bioorg Med Chem, 2008).
Values belong to the molecule of their own block, whether it stands above or below them. Calls of active or inactive are those of the source. No cut-off for these calls is given here.

Key:
[1] = AUC in Sprague-Dawley rat plasma at 5 mg/kg, po after 24 hrs; type: ADME, organism-based; parameters: time < 24 hr, dose 5 mg/kg, route oral
[2] = Half life in Sprague-Dawley rat plasma at 5 mg/kg, iv after 24 hrs; type: ADME, organism-based; parameters: dose 5 mg/kg, route intravenous
[3] = Clearance in Sprague-Dawley rat plasma after 24 hrs; type: ADME, organism-based
[4] = Volume of distribution at steady state in Sprague-Dawley rat plasma after 24 hrs; type: ADME, organism-based; conditions: read-out: Vdss
[5] = Bioavailability in Sprague-Dawley rat plasma at 5 mg/kg, po after 24 hrs; type: ADME, organism-based
[6] = system: Mus musculus; assay: Antihyperglycemic effect in ob/ob B6.V-Lepob/J mouse assessed as reduction in blood glucose level at 20 mg/kg once daily after 14 days relative to control; type: functional; parameters: scale not given: the % may be the effect or the level left
[7] = species: Mus musculus; assay: Antihyperglycemic effect in ob/ob B6.V-Lepob/J mouse assessed as reduction in plasma glucose level after 14 days relative to control; type: functional, organism-based
[8] = Half life in Sprague-Dawley rat plasma at 1 mg/kg, iv after 24 hrs; type: ADME, organism-based; parameters: dose 1 mg/kg, route intravenous
[9] = system: Rattus norvegicus; assay: Reduction of plasma glucose level in Zucker diabetic fa/fa rat at 10 mg/kg, po; type: functional; parameters: scale not given: the % may be the effect or the level left
[10] = system: Rattus norvegicus; assay: Decrease in fasting serum triglyceride level in Zucker diabetic fa/fa rat at 10 mg/kg, po; type: functional; parameters: scale not given: the % may be the effect or the level left
[11] = system: Rattus norvegicus; assay: Increase in high density lipoprotein level in Zucker diabetic fa/fa rat at 10 mg/kg, po; type: functional
[12] = biological target: T1, Peroxisome proliferator-activated receptor alpha (Homo sapiens, UniProt Q07869)
T1 sequence (Q07869 whole entry): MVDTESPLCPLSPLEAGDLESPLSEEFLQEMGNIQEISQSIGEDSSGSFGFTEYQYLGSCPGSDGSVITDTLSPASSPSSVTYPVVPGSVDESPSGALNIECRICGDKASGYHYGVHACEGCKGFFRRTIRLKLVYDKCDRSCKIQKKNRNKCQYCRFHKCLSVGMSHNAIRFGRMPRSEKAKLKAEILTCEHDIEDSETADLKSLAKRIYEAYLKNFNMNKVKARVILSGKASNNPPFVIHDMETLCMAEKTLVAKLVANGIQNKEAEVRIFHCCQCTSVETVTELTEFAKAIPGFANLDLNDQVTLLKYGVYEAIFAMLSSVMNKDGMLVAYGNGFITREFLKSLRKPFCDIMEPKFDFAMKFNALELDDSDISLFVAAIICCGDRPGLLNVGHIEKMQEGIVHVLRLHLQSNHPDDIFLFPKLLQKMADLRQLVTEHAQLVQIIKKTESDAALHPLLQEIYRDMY

Structure (SMILES): Cc1oc(-c2ccccc2)nc1CCCc1ccc(C[C@@H](C(=O)O)n2cccc2)cc1
AUC at 24 h [1]: 8650 ng·h/mL | half-life [2]: 8.4 h | clearance [3]: 5.3 mL/min/kg | Vd [4]: 1.06 L/kg | bioavailability [5]: 50% | Activity [6]: 70% | Activity [7]: Active

Structure (SMILES): Cc1oc(-c2ccccc2)nc1C/C=C/c1ccc(C[C@@H](C(=O)O)n2cccc2)cc1
AUC at 24 h [1]: 55400 ng·h/mL | half-life [8]: 5.6 h | clearance [3]: 0.9 mL/min/kg | Vd [4]: 0.408 L/kg | bioavailability [5]: 62% | Activity [6]: 71% | Activity [7]: Active

Structure (SMILES): Cc1oc(-c2ccccc2)nc1CCOc1ccc(C[C@@H](C(=O)O)n2cccc2)cc1
Activity [9]: 40% | Activity [10]: 24% | Activity [11]: 31%

Structure (SMILES): CN(C/C=C/c1ccc(C[C@@H](C(=O)O)n2cccc2)cc1)c1ccccc1
EC50 [12]: > 30 µM

Structure (SMILES): CC(=O)N(Cc1ccc(C[C@@H](C(=O)O)n2cccc2)cc1)Cc1nc(-c2ccccc2)oc1C
EC50 [12]: > 30 µM

Structure (SMILES): CN(CC#Cc1ccc(C[C@@H](C(=O)O)n2cccc2)cc1)c1ccccc1
EC50 [12]: > 100 µM

Structure (SMILES): Cc1oc(-c2ccccc2)nc1CCNc1ccc(C[C@@H](C(=O)O)n2cccc2)cc1
Activity [6]: inactive

Structure (SMILES): CN(C/C=C/c1ccc(C[C@@H](C(=O)O)n2cccc2)cc1)c1ccccn1
EC50 [12]: 29 µM

Structure (SMILES): CN(CC#Cc1ccc(CC(C(=O)O)n2cccc2)cc1)c1ccccn1 (racemic)
EC50 [12]: > 100 µM

Continued, values first:

EC50 [12]: > 30 µM
Structure (SMILES): Cc1oc(-c2ccccc2)nc1CNCc1ccc(C[C@@H](C(=O)O)n2cccc2)cc1

EC50 [12]: 4 µM
Structure (SMILES): Cc1oc(-c2ccccc2)nc1CC#Cc1ccc(CC(C(=O)O)c2ccc(-c3ccccc3)cc2)cc1 (racemic)

EC50 [12]: 2.8 µM
Structure (SMILES): Cc1oc(-c2ccccc2)nc1CC#Cc1ccc(CC(C(=O)O)c2cccc(-c3ccccc3)c2)cc1 (racemic)

EC50 [12]: 16 µM
Structure (SMILES): Cc1oc(-c2ccccc2)nc1CC#Cc1ccc(CC(C(=O)O)c2cccnc2)cc1 (racemic)

EC50 [12]: 12 µM
Structure (SMILES): Cc1oc(-c2ccccc2)nc1CN(C)Cc1ccc(C[C@@H](C(=O)O)n2cccc2)cc1
